Among the data in patent publication US6518269B1, “Cancer treatment” (University of Arizona Foundation, priority 2000, dated 2003) are IC50 values, retold here.

For one assay, the system named is HT29 Colon Cancer. The experiment in a line: MTT growth inhibition assay, HT29 Colon Cancer. The format is cell-based. The following applies: Homo sapiens, HT-29, HT29 Colon Cancer cells. As for the experimental part: (§1) Each of the following compounds was tested for growth inhibition in a MTT assay against B16 Murine Melanoma and HT29 Colon Cancer, reported as IC50(μM).
For orientation: Tetrazolium assays rely on reduction of a dye to a coloured formazan, in cell work by metabolically active cells.

The subject of the next assay is B16 Murine Melanoma. The experiment in a line: MTT growth inhibition assay, B16 Murine Melanoma. It is filed as cell-based. The following applies: Mus musculus, B16 Murine Melanoma cells. As for the experimental part:
as §1

As to `Cc1nnc(N/N=C/c2ccccc2O)[nH]c1=O` [Compound II, benzaldehyde, 2-hydroxy-, (4-hydro-5-oxo-6-methyl-1,2,4-triazin-3-yl)hydrazide], the values for the IC50 with HT29 Colon Cancer and in the assay with B16 Murine Melanoma were 19 nM and 1100 nM, respectively.
In the case of `O=c1cnnc(N/N=C/c2ccccc2O)[nH]1` [Compound I, benzaldehyde, 2-hydroxy-, (4-hydro-5-oxo-1,2,4-triazin-3-yl)hydrazide], the IC50 (usually the concentration that inhibits the measured activity by half) in the assay on HT29 Colon Cancer came to 7 nM; in the assay on B16 Murine Melanoma, 264 nM.
